Tested on: peptide-specific IgG in plasma of prostate cancer patients and healthy donors
Assay: Detection of peptide-specific IgG in plasma by ELISA
Format: binding, human
Details: for IgG reactive to peptide in plasma: 1:100-diluted plasma
[1] = Prostate cancer patient 14, A33
[2] = Prostate cancer patient 12, A11
[3] = Prostate cancer patient 20, A33
[4] = Prostate cancer patient 17, A33
[5] = Prostate cancer patient 19, A33

| Substance | IgG reactive to peptide in plasma, Total (positive/tested) (Healthy donors) | IgG reactive to peptide in plasma [1] | IgG reactive to peptide in plasma, Total (positive/tested) (Prostate cancer patients) | IgG reactive to peptide in plasma (Prostate cancer patient 9, A11) | IgG reactive to peptide in plasma (Prostate cancer patient 6, A31) | IgG reactive to peptide in plasma [3] | further results |
| --- | --- | --- | --- | --- | --- | --- | --- |
| HYELGEYIR (PAP 78-86) [PAP-derived peptide] | 1/9 | + (IgG reactive to a corresponding peptide was judged to be positive when a difference of the optical density (OD) in a 1:100-diluted plasma was more than 100) | 1/20 |  |  |  | IgG reactive to peptide in plasma (Healthy donor 3, A31): + (IgG reactive to a corresponding peptide was judged to be positive when a difference of the optical density (OD) in a 1:100-diluted plasma was more than 100) |
| LYLPFRNCPR (PAP 154-163) [PAP-derived peptide] | 0/9 |  | 3/20 | + (IgG reactive to a corresponding peptide was judged to be positive when a difference of the optical density (OD) in a 1:100-diluted plasma was more than 100) |  |  | IgG reactive to peptide in plasma (Prostate cancer patient 10, A11): + (IgG reactive to a corresponding peptide was judged to be positive when a difference of the optical density (OD) in a 1:100-diluted plasma was more than 100); IgG reactive to peptide in plasma (Prostate cancer patient 16, A33): + (IgG reactive to a corresponding peptide was judged to be positive when a difference of the optical density (OD) in a 1:100-diluted plasma was more than 100) |
| LYTKVVHYR (PSA 242-250) [PSA-derived peptide] | 0/9 |  | 0/20 |  |  |  |  |
| PAP 18-28 (FLFLLFFWLDR; UniProt P15309 18-28, looked up, fragment) | 1/9 |  | 0/20 |  |  |  | IgG reactive to peptide in plasma (Healthy donor 12, A31): + (IgG reactive to a corresponding peptide was judged to be positive when a difference of the optical density (OD) in a 1:100-diluted plasma was more than 100) |
| PSMA 247-265 (NLPGGGVQRGNILNLNGAG; UniProt Q04609 247-265, looked up, fragment) | 0/9 |  | 6/20 | + (IgG reactive to a corresponding peptide was judged to be positive when a difference of the optical density (OD) in a 1:100-diluted plasma was more than 100) | + (IgG reactive to a corresponding peptide was judged to be positive when a difference of the optical density (OD) in a 1:100-diluted plasma was more than 100) | + (IgG reactive to a corresponding peptide was judged to be positive when a difference of the optical density (OD) in a 1:100-diluted plasma was more than 100) | IgG reactive to peptide in plasma (Prostate cancer patient 8, A11): + (IgG reactive to a corresponding peptide was judged to be positive when a difference of the optical density (OD) in a 1:100-diluted plasma was more than 100); IgG reactive to peptide in plasma [2]: + (IgG reactive to a corresponding peptide was judged to be positive when a difference of the optical density (OD) in a 1:100-diluted plasma was more than 100) |
| PSMA 370-378 (RYVILGGHR; PSMA 370-378) | 0/9 |  | 2/20 |  |  | + (IgG reactive to a corresponding peptide was judged to be positive when a difference of the optical density (OD) in a 1:100-diluted plasma was more than 100) | IgG reactive to peptide in plasma (Prostate cancer patient 5, A31): + (IgG reactive to a corresponding peptide was judged to be positive when a difference of the optical density (OD) in a 1:100-diluted plasma was more than 100) |
| PSMA 456-463 (IEGNYTLR; UniProt Q04609 456-463, looked up, fragment) | 0/9 | + (IgG reactive to a corresponding peptide was judged to be positive when a difference of the optical density (OD) in a 1:100-diluted plasma was more than 100) | 9/20 | + (IgG reactive to a corresponding peptide was judged to be positive when a difference of the optical density (OD) in a 1:100-diluted plasma was more than 100) | + (IgG reactive to a corresponding peptide was judged to be positive when a difference of the optical density (OD) in a 1:100-diluted plasma was more than 100) | + (IgG reactive to a corresponding peptide was judged to be positive when a difference of the optical density (OD) in a 1:100-diluted plasma was more than 100) | IgG reactive to peptide in plasma (Prostate cancer patient 4, A31): + (IgG reactive to a corresponding peptide was judged to be positive when a difference of the optical density (OD) in a 1:100-diluted plasma was more than 100); IgG reactive to peptide in plasma (Prostate cancer patient 5, A31): + (IgG reactive to a corresponding peptide was judged to be positive when a difference of the optical density (OD) in a 1:100-diluted plasma was more than 100); IgG reactive to peptide in plasma [2]: + (IgG reactive to a corresponding peptide was judged to be positive when a difference of the optical density (OD) in a 1:100-diluted plasma was more than 100); IgG reactive to peptide in plasma [4]: + (IgG reactive to a corresponding peptide was judged to be positive when a difference of the optical density (OD) in a 1:100-diluted plasma was more than 100); IgG reactive to peptide in plasma [5]: + (IgG reactive to a corresponding peptide was judged to be positive when a difference of the optical density (OD) in a 1:100-diluted plasma was more than 100) |
| PSMA 590-698 | 0/9 | + (IgG reactive to a corresponding peptide was judged to be positive when a difference of the optical density (OD) in a 1:100-diluted plasma was more than 100) | 11/20 | + (IgG reactive to a corresponding peptide was judged to be positive when a difference of the optical density (OD) in a 1:100-diluted plasma was more than 100) | + (IgG reactive to a corresponding peptide was judged to be positive when a difference of the optical density (OD) in a 1:100-diluted plasma was more than 100) | + (IgG reactive to a corresponding peptide was judged to be positive when a difference of the optical density (OD) in a 1:100-diluted plasma was more than 100) | IgG reactive to peptide in plasma (Prostate cancer patient 4, A31): + (IgG reactive to a corresponding peptide was judged to be positive when a difference of the optical density (OD) in a 1:100-diluted plasma was more than 100); IgG reactive to peptide in plasma (Prostate cancer patient 5, A31): + (IgG reactive to a corresponding peptide was judged to be positive when a difference of the optical density (OD) in a 1:100-diluted plasma was more than 100); IgG reactive to peptide in plasma (Prostate cancer patient 8, A11): + (IgG reactive to a corresponding peptide was judged to be positive when a difference of the optical density (OD) in a 1:100-diluted plasma was more than 100); IgG reactive to peptide in plasma [2]: + (IgG reactive to a corresponding peptide was judged to be positive when a difference of the optical density (OD) in a 1:100-diluted plasma was more than 100); IgG reactive to peptide in plasma (Prostate cancer patient 13, A11): + (IgG reactive to a corresponding peptide was judged to be positive when a difference of the optical density (OD) in a 1:100-diluted plasma was more than 100); IgG reactive to peptide in plasma [4]: + (IgG reactive to a corresponding peptide was judged to be positive when a difference of the optical density (OD) in a 1:100-diluted plasma was more than 100); IgG reactive to peptide in plasma [5]: + (IgG reactive to a corresponding peptide was judged to be positive when a difference of the optical density (OD) in a 1:100-diluted plasma was more than 100) |
| RIYNVIGTLR [PSMA 354-363] | 0/9 |  | 2/20 |  | + (IgG reactive to a corresponding peptide was judged to be positive when a difference of the optical density (OD) in a 1:100-diluted plasma was more than 100) | + (IgG reactive to a corresponding peptide was judged to be positive when a difference of the optical density (OD) in a 1:100-diluted plasma was more than 100) |  |
| RNKSVILLGR (PSA 68-77) [PSA-derived peptide] | 0/9 |  | 0/20 |  |  |  |  |
| SLYTKVVHYR [PSA 241-250] | 0/9 |  | 0/20 |  |  |  |  |
| SYKHEQVYIR (PAP 96-105) [PAP-derived peptide] | 1/9 | + (IgG reactive to a corresponding peptide was judged to be positive when a difference of the optical density (OD) in a 1:100-diluted plasma was more than 100) | 1/20 |  |  |  |  |

— patent US20100184699A1, “Peptide Derived From Prostate-Related Protein As Cancer Vaccine Candidate For Prostate Cancer Patient Who Is Positive For Hla-A3 Super-Type Allele Molecule” (priority 2005, published 2010)
